What was measured:
[1] = target: T1, human TLR7 (Homo sapiens, UniProt Q9NYK1); test: TLR7 inhibition reporter assay (HEK-Blue SEAP); format: cell-based; conditions: HEK-Blue cells overexpressing human TLR7, gardiquimod 7.5 μM, 22 hour incubation
T1 construct: host or cells: HEK-Blue cells
T1 sequence (Q9NYK1 27-1049): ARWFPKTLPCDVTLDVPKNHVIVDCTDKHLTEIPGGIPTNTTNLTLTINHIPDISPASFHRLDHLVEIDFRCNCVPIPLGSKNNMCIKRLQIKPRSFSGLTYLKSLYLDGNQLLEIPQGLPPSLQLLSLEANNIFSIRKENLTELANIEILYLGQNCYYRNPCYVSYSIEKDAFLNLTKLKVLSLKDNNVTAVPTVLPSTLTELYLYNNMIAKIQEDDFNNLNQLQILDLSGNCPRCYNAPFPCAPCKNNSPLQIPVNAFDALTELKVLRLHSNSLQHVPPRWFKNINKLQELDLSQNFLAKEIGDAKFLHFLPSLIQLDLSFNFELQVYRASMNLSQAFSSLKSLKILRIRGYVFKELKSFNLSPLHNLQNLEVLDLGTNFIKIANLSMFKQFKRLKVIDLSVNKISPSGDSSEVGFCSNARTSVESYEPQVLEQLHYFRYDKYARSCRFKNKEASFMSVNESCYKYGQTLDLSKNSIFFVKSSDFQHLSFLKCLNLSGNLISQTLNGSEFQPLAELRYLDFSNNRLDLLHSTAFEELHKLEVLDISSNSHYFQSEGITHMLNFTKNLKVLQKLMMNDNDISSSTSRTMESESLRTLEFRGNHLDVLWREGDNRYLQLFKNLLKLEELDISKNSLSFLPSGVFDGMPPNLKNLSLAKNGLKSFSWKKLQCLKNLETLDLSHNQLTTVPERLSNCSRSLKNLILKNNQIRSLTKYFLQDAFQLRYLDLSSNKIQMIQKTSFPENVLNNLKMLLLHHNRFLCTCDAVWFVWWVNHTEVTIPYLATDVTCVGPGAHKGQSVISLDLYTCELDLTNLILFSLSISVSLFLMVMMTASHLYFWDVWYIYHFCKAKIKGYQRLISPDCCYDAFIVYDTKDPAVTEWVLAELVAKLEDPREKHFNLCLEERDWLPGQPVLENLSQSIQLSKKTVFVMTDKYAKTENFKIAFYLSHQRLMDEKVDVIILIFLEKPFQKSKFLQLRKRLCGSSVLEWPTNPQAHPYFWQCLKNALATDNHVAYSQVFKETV
Procedure, shortened: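 22 h, 37° C, 5% CO2 incubation; compounds 0.05 nM-50 μM final; TLR7 cells 15000/well, TLR8 20,000/well. Readout: SEAP via HEK-Blue Detection medium. % inhibition = signal reduction versus agonist + DMSO wells, referenced to known inhibitor.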

[2] = target: T2, human TLR8 (Homo sapiens, UniProt Q9NR97); test: TLR8 inhibition reporter assay (HEK-Blue SEAP); format: cell-based; conditions: HEK-Blue cells overexpressing human TLR8, R848 15.9 μM, 22 hour incubation
T2 construct: host or cells: HEK-Blue cells
T2 sequence (Q9NR97 27-1041): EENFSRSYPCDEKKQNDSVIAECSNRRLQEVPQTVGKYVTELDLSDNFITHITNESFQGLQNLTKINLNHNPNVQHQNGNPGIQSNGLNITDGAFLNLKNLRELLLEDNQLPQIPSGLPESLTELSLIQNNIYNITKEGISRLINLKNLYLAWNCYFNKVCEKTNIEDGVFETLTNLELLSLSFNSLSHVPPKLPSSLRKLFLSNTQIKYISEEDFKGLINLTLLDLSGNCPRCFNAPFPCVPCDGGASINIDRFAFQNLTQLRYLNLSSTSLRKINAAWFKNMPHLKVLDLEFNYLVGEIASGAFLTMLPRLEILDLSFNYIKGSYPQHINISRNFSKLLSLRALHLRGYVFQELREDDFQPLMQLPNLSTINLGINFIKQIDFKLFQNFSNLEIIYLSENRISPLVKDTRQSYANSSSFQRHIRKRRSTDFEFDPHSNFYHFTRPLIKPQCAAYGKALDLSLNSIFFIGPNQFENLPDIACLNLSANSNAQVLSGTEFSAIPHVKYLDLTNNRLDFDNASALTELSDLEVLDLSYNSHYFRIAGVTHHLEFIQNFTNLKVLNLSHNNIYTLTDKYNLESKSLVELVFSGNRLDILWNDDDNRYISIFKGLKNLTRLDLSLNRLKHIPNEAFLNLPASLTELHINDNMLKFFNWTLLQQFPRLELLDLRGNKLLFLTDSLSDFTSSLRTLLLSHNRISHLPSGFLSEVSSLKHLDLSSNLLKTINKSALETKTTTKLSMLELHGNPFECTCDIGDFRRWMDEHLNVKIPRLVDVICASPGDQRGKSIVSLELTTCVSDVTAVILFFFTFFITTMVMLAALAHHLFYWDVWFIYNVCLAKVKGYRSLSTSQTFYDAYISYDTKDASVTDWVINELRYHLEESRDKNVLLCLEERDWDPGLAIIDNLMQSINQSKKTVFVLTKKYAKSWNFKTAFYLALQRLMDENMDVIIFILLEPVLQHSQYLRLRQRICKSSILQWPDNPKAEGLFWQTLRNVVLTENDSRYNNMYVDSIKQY
Procedure, shortened: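 Compound treatment: 30 min, RT, 0.05 nM–50 μM final. Agonist: TLR7 gardiquimod 7.5 μM; TLR8 R848 15.9 μM; TLR9 ODN2006 5 nM. Incubation 22 h, 37 °C, 5% CO2. Readout SEAP, HEK-Blue Detection.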

Structure (SMILES) | IC50 [1] | IC50 [2]
Cc1cc2c(cc1-c1cc(C)c3ncnn3c1)[nH]c(=O)n2[C@H]1CCCN(C)C1 [Example 11, (S)-6-methyl-5-(8-methyl-[1,2,4]triazolo[1,5-a]pyridin-6-yl)-1-(1-methylpiperidin-3-yl)-1,3-dihydro-2H-benzo[d]imidazol-2-one] | 276 nM | 143 nM
CCc1cc2c(cc1-c1cc(OC)c3ncnn3c1)[nH]c(=O)n2[C@@H]1CCCN(CC)C1 [Example 171, (R)-6-ethyl-1-(1-ethylpiperidin-3-yl)-5-(8-methoxy-[1,2,4]triazolo[1,5-a]pyridin-6-yl)-1,3-dihydro-2H-benzo[d]imidazol-2-one] | 4.56 nM | 3.03 nM
CCc1cc2c(cc1-c1cc(OC)c3ncnn3c1)[nH]c(=O)n2[C@@H]1CCCN(C(C)C)C1 [Example 172, (R)-6-ethyl-1-(1-isopropylpiperidin-3-yl)-5-(8-methoxy-[1,2,4]triazolo[1,5-a]pyridin-6-yl)-1,3-dihydro-2H-benzo[d]imidazol-2-one] | 1.45 nM | 1.75 nM
Cc1c(-c2cc3[nH]c(=O)n([C@H]4CC[C@@H](NCC(C)(C)C)CC4)c3cc2C(C)C)cn2ncnc2c1C [Example 190, 5-(7,8-dimethyl-[1,2,4]triazolo[1,5-a]pyridin-6-yl)-6-isopropyl-1-((1s,4s)-4-(neopentylamino)cyclohexyl)-1,3-dihydro-2H-benzo[d]imidazol-2-one] | 5.72 nM | 0.08 nM
Cc1c(-c2cc3[nH]c(=O)n([C@H]4CC[C@@H](NC5COC5)CC4)c3cc2C(C)C)cn2ncnc2c1C [Example 188, 5-(7,8-dimethyl-[1,2,4]triazolo[1,5-a]pyridin-6-yl)-6-isopropyl-1-((1s,4s)-4-(oxetan-3-ylamino)cyclohexyl)-1,3-dihydro-2H-benzo[d]imidazol-2-one] | 7.14 nM | 0.95 nM
CCc1cc2c(cc1-c1cc(OC)c3ncnn3c1)[nH]c(=O)n2[C@@H]1CCCN(CC(CC)CC)C1 [Example 178, (R)-6-ethyl-1-(1-(2-ethylbutyl)piperidin-3-yl)-5-(8-methoxy-[1,2,4]triazolo[1,5-a]pyridin-6-yl)-1,3-dihydro-2H-benzo[d]imidazol-2-one] | 0.81 nM | 2.62 nM
CCc1cc2c(cc1-c1cc(OC)c3ncnn3c1)[nH]c(=O)n2[C@@H]1CCCN(CCC(F)(F)F)C1 [Example 183, (R)-6-ethyl-5-(8-methoxy-[1,2,4]triazolo[1,5-a]pyridin-6-yl)-1-(1-(3,3,3-trifluoropropyl)piperidin-3-yl)-1,3-dihydro-2H-benzo[d]imidazol-2-one] | 12.2 nM | 6.44 nM
Cc1c(-c2cc3[nH]c(=O)n([C@H]4CC[C@@H](N(C)C)CC4)c3cc2C(C)C)cn2ncnc2c1C [Example 185, 5-(7,8-dimethyl-[1,2,4]triazolo[1,5-a]pyridin-6-yl)-1-((1s,4s)-4-(dimethylamino)cyclohexyl)-6-isopropyl-1,3-dihydro-2H-benzo[d]imidazol-2-one] | 3.39 nM | 0.36 nM

The remaining lines, values ahead:

IC50 [1] | IC50 [2] | Structure (SMILES)
1.49 nM | 0.58 nM | COc1cc(-c2cc3[nH]c(=O)n([C@H]4CC[C@@H](N(C)C)CC4)c3cc2C(C)C)cn2ncnc12 [Example 191, 1-((1s,4s)-4-(dimethylamino)cyclohexyl)-6-isopropyl-5-(8-methoxy-[1,2,4]triazolo[1,5-a]pyridin-6-yl)-1,3-dihydro-2H-benzo[d]imidazol-2-one]
4.72 nM | 1.34 nM | COc1cc(-c2cc3[nH]c(=O)n([C@H]4CC[C@H](NC(C)C)CC4)c3cc2C(C)C)cn2ncnc12 [Example 203, 6-isopropyl-1-((1r,4s)-4-(isopropylamino)cyclohexyl)-5-(8-methoxy-[1,2,4]triazolo[1,5-a]pyridin-6-yl)-1,3-dihydro-2H-benzo[d]imidazol-2-one]
11.3 nM | 5.67 nM | COCCN1CCC[C@H](n2c(=O)[nH]c3cc(-c4cc(OC)c5ncnn5c4)c(C(C)C)cc32)C1 [Example 221, (S)-6-isopropyl-5-(8-methoxy-[1,2,4]triazolo[1,5-a]pyridin-6-yl)-1-(1-(2-methoxyethyl)piperidin-3-yl)-1,3-dihydro-2H-benzo[d]imidazol-2-one]
11.2 nM | 5.4 nM | COc1cc(-c2cc3[nH]c(=O)n([C@@H]4CCCN(C5CCOC5)C4)c3cc2C(C)C)cn2ncnc12 (stereo partly drawn) [Example 217, 6-isopropyl-5-(8-methoxy-[1,2,4]triazolo[1,5-a]pyridin-6-yl)-1-((3R)-1-(tetrahydrofuran-3-yl)piperidin-3-yl)-1,3-dihydro-2H-benzo[d]imidazol-2-one]
7.96 nM | 20.4 nM | CCc1cc2c(cc1-c1cc(OC)c3ncnn3c1)[nH]c(=O)n2[C@@H]1CCCN(CC2CCCC2)C1 [Example 209, (R)-1-(1-(cyclopentylmethyl)piperidin-3-yl)-6-ethyl-5-(8-methoxy-[1,2,4]triazolo[1,5-a]pyridin-6-yl)-1,3-dihydro-2H-benzo[d]imidazol-2-one]
11 nM | 1.9 nM | COc1cc(-c2cc3[nH]c(=O)n(C4CCC(N5CCNC(=O)C5)CC4)c3cc2C(C)C)cn2ncnc12 (single isomer, unassigned) [Example 233, 6-isopropyl-5-(8-methoxy-[1,2,4]triazolo[1,5-a]pyridin-6-yl)-1-(4-(3-oxopiperazin-1-yl)cyclohexyl)-1,3-dihydro-2H-benzo[d]imidazol-2-one]
1.69 nM | 0.21 nM | COc1cc(-c2cc3[nH]c(=O)n(C4CCC(N5CCC6(CC5)COC6)CC4)c3cc2C(C)C)cn2ncnc12 (stereo not shown) [Example 239, 1-(4-(2-oxa-7-azaspiro[3.5]nonan-7-yl)cyclohexyl)-6-isopropyl-5-(8-methoxy-[1,2,4]triazolo[1,5-a]pyridin-6-yl)-1,3-dihydro-2H-benzo[d]imidazol-2-one]
1.68 nM | 0.81 nM | COc1cc(-c2cc3[nH]c(=O)n(C4CCC(N5CCCC5)CC4)c3cc2C(C)C)cn2ncnc12 (stereo not shown) [Example 231, 6-isopropyl-5-(8-methoxy-[1,2,4]triazolo[1,5-a]pyridin-6-yl)-1-(4-(pyrrolidin-1-yl)cyclohexyl)-1,3-dihydro-2H-benzo[d]imidazol-2-one]
2.86 nM | 3.3 nM | COc1cc(-c2cc3[nH]c(=O)n([C@@H]4CCCN(CCC(C)(C)C)C4)c3cc2C(C)C)cn2ncnc12 [Example 210, (R)-1-(1-(3,3-dimethylbutyl)piperidin-3-yl)-6-isopropyl-5-(8-methoxy-[1,2,4]triazolo[1,5-a]pyridin-6-yl)-1,3-dihydro-2H-benzo[d]imidazol-2-one]

From patent US12187723B2 (BRISTOL-MYERS SQUIBB COMPANY, priority 2019, dated 2025)
